{
  "source": "ChEMBL document CHEMBL1201862",
  "about": "“PubChem BioAssay data set” (2004)",
  "test_in_all_cases": "NCI anticancer screen, dose series, 48 h",
  "key": {"MDA-MB-435": {"system": "MDA-MB-435"}, "HCC 2998": {"system": "HCC 2998"}, "HCT-116": {"system": "HCT-116"}, "HCT-15": {"system": "HCT-15"}, "TK-10": {"system": "TK-10"}, "NCI-H522": {"system": "NCI-H522"}, "NCI-H226": {"system": "NCI-H226"}, "SF-539": {"system": "SF-539"}, "786-0": {"system": "786-0"}, "HOP-92": {"system": "HOP-92"}, "T47D": {"system": "T47D"}, "LOX IMVI": {"system": "LOX IMVI"}, "DU-145": {"system": "DU-145"}, "OVCAR-5": {"system": "OVCAR-5"}, "PC-3": {"system": "PC-3"}, "SK-OV-3": {"system": "SK-OV-3"}, "COLO 205": {"system": "COLO 205"}, "SN12C": {"system": "SN12C"}, "ACHN": {"system": "ACHN"}, "MOLT-4": {"system": "MOLT-4"}, "SF-295": {"system": "SF-295"}, "A549": {"system": "A549"}, "K562": {"system": "K562"}, "NCI-H460": {"system": "NCI-H460"}, "A498": {"system": "A498"}, "SK-MEL-2": {"system": "SK-MEL-2"}, "RPMI-8226": {"system": "RPMI-8226"}, "SW-620": {"system": "SW-620"}, "OVCAR-3": {"system": "OVCAR-3"}, "SR": {"system": "SR"}, "OVCAR-8": {"system": "OVCAR-8"}, "EKVX": {"system": "EKVX"}, "M14": {"system": "M14"}, "Hs-578T": {"system": "Hs-578T"}, "BT-549": {"system": "BT-549"}, "NCI-H23": {"system": "NCI-H23"}, "Malme-3M": {"system": "Malme-3M"}, "UO-31": {"system": "UO-31"}, "MDA-N": {"system": "MDA-N"}, "KM12": {"system": "KM12"}, "MCF7": {"system": "MCF7"}, "IGROV-1": {"system": "IGROV-1"}, "UACC-62": {"system": "UACC-62"}, "RXF 393": {"system": "RXF 393"}, "U-251": {"system": "U-251"}, "NCI/ADR-RES": {"system": "NCI/ADR-RES"}, "OVCAR-4": {"system": "OVCAR-4"}, "SNB-75": {"system": "SNB-75"}, "HT-29": {"system": "HT-29"}, "CCRF-CEM": {"system": "CCRF-CEM"}, "MDA-MB-231": {"system": "MDA-MB-231"}, "CAKI-1": {"system": "CAKI-1"}, "HOP-62": {"system": "HOP-62"}, "HL-60": {"system": "HL-60"}, "UACC-257": {"system": "UACC-257"}, "SK-MEL-28": {"system": "SK-MEL-28"}, "SK-MEL-5": {"system": "SK-MEL-5"}, "SNB-19": {"system": "SNB-19"}},
  "note": "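1) Cells in 96-well plates. 2) Compound, 48 h, 5 concentrations. 3) Linear interpolation between surrounding doses. 4) Unreached endpoint = highest concentration. At the GI50, growth is halved.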 Calls of active or inactive are those of the source. No stated cut-off is given here; in the data, active = GI50 up to about 1.1 µM and inactive = higher.",
  "data": [
    {"smiles": "O=[N+]([O-])c1ccc2c(c1)nc(Cc1ccc(Cl)cc1)n2C[C@@H]1CCCN2CCCCC12", "note": "(stereo partly drawn)", "values": [
      {"measurement": "GI50", "setting": "MDA-MB-435", "value": "14.3 µM (inactive)"},
      {"measurement": "GI50", "setting": "HCC 2998", "value": "7.64 µM (inactive)"},
      {"measurement": "GI50", "setting": "HCT-116", "value": "10.5 µM (inactive)"},
      {"measurement": "GI50", "setting": "HCT-15", "value": 16, "unit": "µM"},
      {"measurement": "GI50", "setting": "TK-10", "value": "17.6 µM (inactive)"},
      {"measurement": "GI50", "setting": "NCI-H522", "value": "12.3 µM (inactive)"},
      {"measurement": "GI50", "setting": "NCI-H226", "value": "16.6 µM (inactive)"},
      {"measurement": "GI50", "setting": "SF-539", "value": "18.4 µM (inactive)"},
      {"measurement": "GI50", "setting": "786-0", "value": "11.8 µM (inactive)"},
      {"measurement": "GI50", "setting": "HOP-92", "value": "6.47 µM (inactive)"},
      {"measurement": "GI50", "setting": "T47D", "value": "16.7 µM (inactive)"},
      {"measurement": "GI50", "setting": "LOX IMVI", "value": "13.7 µM (inactive)"},
      {"measurement": "GI50", "setting": "DU-145", "value": "17.7 µM (inactive)"},
      {"measurement": "GI50", "setting": "OVCAR-5", "value": "15.5 µM (inactive)"},
      {"measurement": "GI50", "setting": "PC-3", "value": "20.2 µM (inactive)"},
      {"measurement": "GI50", "setting": "SK-OV-3", "value": "18.9 µM (inactive)"},
      {"measurement": "GI50", "setting": "COLO 205", "value": "10.4 µM (inactive)"},
      {"measurement": "GI50", "setting": "SN12C", "value": "13.6 µM (inactive)"},
      {"measurement": "GI50", "setting": "ACHN", "value": "13.4 µM (inactive)"},
      {"measurement": "GI50", "setting": "MOLT-4", "value": "10.9 µM (inactive)"},
      {"measurement": "GI50", "setting": "SF-295", "value": "15.3 µM (inactive)"},
      {"measurement": "GI50", "setting": "A549", "value": "19.2 µM (inactive)"},
      {"measurement": "GI50", "setting": "K562", "value": "15 µM (inactive)"},
      {"measurement": "GI50", "setting": "NCI-H460", "value": "14 µM (inactive)"},
      {"measurement": "GI50", "setting": "A498", "value": "6.05 µM (inactive)"},
      {"measurement": "GI50", "setting": "SK-MEL-2", "value": "15.8 µM (inactive)"},
      {"measurement": "GI50", "setting": "RPMI-8226", "value": "26.3 µM (inactive)"},
      {"measurement": "GI50", "setting": "SW-620", "value": "20.8 µM (inactive)"},
      {"measurement": "GI50", "setting": "OVCAR-3", "value": "15.5 µM (inactive)"},
      {"measurement": "GI50", "setting": "SR", "value": "22.7 µM (inactive)"},
      {"measurement": "GI50", "setting": "OVCAR-8", "value": "15.1 µM (inactive)"},
      {"measurement": "GI50", "setting": "EKVX", "value": "8.39 µM (inactive)"},
      {"measurement": "GI50", "setting": "M14", "value": "9.79 µM (inactive)"},
      {"measurement": "GI50", "setting": "Hs-578T", "value": "13.5 µM (inactive)"},
      {"measurement": "GI50", "setting": "BT-549", "value": "13 µM (inactive)"},
      {"measurement": "GI50", "setting": "NCI-H23", "value": "14.9 µM (inactive)"},
      {"measurement": "GI50", "setting": "Malme-3M", "value": "9.16 µM (inactive)"},
      {"measurement": "GI50", "setting": "UO-31", "value": "1.58 µM (inactive)"},
      {"measurement": "GI50", "setting": "MDA-N", "value": "12.9 µM (inactive)"},
      {"measurement": "GI50", "setting": "KM12", "value": "13.5 µM (inactive)"},
      {"measurement": "GI50", "setting": "MCF7", "value": "540 nM (active)"},
      {"measurement": "GI50", "setting": "IGROV-1", "value": "9.84 µM (inactive)"},
      {"measurement": "GI50", "setting": "UACC-62", "value": "15.2 µM (inactive)"},
      {"measurement": "GI50", "setting": "RXF 393", "value": "11.6 µM (inactive)"},
      {"measurement": "GI50", "setting": "U-251", "value": "18.6 µM (inactive)"},
      {"measurement": "GI50", "setting": "NCI/ADR-RES", "value": "13.9 µM (inactive)"},
      {"measurement": "GI50", "setting": "OVCAR-4", "value": "9.86 µM (inactive)"},
      {"measurement": "GI50", "setting": "SNB-75", "value": "15 µM (inactive)"},
      {"measurement": "GI50", "setting": "HT-29", "value": "8.59 µM (inactive)"},
      {"measurement": "GI50", "setting": "CCRF-CEM", "value": "11.8 µM (inactive)"},
      {"measurement": "GI50", "setting": "MDA-MB-231", "value": "16.5 µM (inactive)"},
      {"measurement": "GI50", "setting": "CAKI-1", "value": "15.2 µM (inactive)"},
      {"measurement": "GI50", "setting": "HOP-62", "value": "20.5 µM (inactive)"},
      {"measurement": "GI50", "setting": "HL-60", "value": "28.9 µM (inactive)"},
      {"measurement": "GI50", "setting": "UACC-257", "value": "15.3 µM (inactive)"},
      {"measurement": "GI50", "setting": "SK-MEL-28", "value": "14.6 µM (inactive)"},
      {"measurement": "GI50", "setting": "SK-MEL-5", "value": "14.8 µM (inactive)"},
      {"measurement": "GI50", "setting": "SNB-19", "value": "22.8 µM (inactive)"}
    ]}
  ]
}
